Data from US12097215B2, “Antibacterial composition and its use in treating bacterial infections” (Vector Vitale IP LLC, priority 2017, dated 2024).
Converted amounts (≈) assume the structure as drawn. Read-outs that look alike come from different tables or passages of the source. Marks after values point to notes of the source that are not given here.

How the values were obtained:
[1] = tested on: S. aureus ATCC 25923; experiment: MIC by serial dilutions in broth (visible growth); assay type: cell-based;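 further: broth tubes inoculated at about 5×10^5 CFU/ml, incubated 16-24 h at 35 °C in air, growth judged by transmitted light against an unexposed refrigerated inoculum tube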
Experimental: (§3) The minimum inhibitory concentration (MIC) and minimum bactericidal concentration (MBC) of the antibacterial composition enriched for the light isotope zinc ^64Zne was evaluated in the experiment. […] S. aureus ATCC 25923, E. coli ATCC 25922 and P. aeruginosa ATCC 27853 were used as test cultures.
(§4) The studies were carried out using the method of serial dilutions in broth. To determine sensitivity of microorganisms to the antibacterial composition, 0.5 ml of broth was placed into each tube. The number of tubes was determined based on the desired number of dilutions and was increased by one for the “negative” control (no test composition). Series of two-fold serial dilutions of the test variants of the antibacterial composition were used and concentrations ranging from 450 mcg ^64Zne/ml to 0.000107 mcg ^64Zne/ml were obtained.
(§5) Reference test strains of S. aureus ATCC 25923, E. coli ATCC 25922 and P. aeruginosa ATCC 27853 were incubated in Mueller-Hinton liquid broth at 37° C. for 24 hours. Standard bacterial suspension equivalent to 0.5 McFarland standard diluted 100-fold with the broth was used for the inoculation of the tubes after which the concentration of microorganism in it was approximately 10^6 CFU/ml.
(§6) 0.5 ml of inoculum was added to each tube containing 0.5 ml of the appropriate dilution of a solution of the ^64Zn-enriched salt of interest. […] The final concentration of the microorganism in each tube was approximately 5×10^5 CFU/ml.
(§7) The tubes were incubated at 35° C. in air for 16-20 or 20-24 hours (depending on the bacterial strain).
(§8) To determine the presence of microorganism growth the test tubes with inoculum were viewed under transmitted light. Transmitted light was measured by spectrophotometry. The growth of culture in the presence of antibacterial compositions based on ^64Zne was compared with the reference test tube (“negative” control), containing the original inoculum and stored in the refrigerator. The MIC was determined as the lowest concentration of ^64Zne that inhibits visible growth of the microorganism. Both gram-positive (S. aureus) and gram-negative bacteria (P. aeruginosa, E. coli) were used in the experiments described below.
(§9) That is, ^64Zne in the form of a salt was compared with a composition that contains zinc with a natural distribution of isotopes. […] Relevant samples containing salt of natural zinc with EDDA and natural zinc sulfate were used for the comparison.
(§10) The following commercial antibacterial medications were used for the study: azithromycin and ceftriaxone and norfloxacin. The initial concentration of 3000 mcg/ml was used for the samples of all the above compounds. […] Serial dilutions of the above antibacterial compounds were also prepared in the same way as for the antibacterial composition of the invention. The same pathogenic strains of S. aureus ATCC 25923, E. coli ATCC 25922, P. aeruginosa ATCC 27853 were used for the study.

[2] = tested on: E. coli ATCC 25922; experiment: MIC by serial dilutions in broth (visible growth); assay type: cell-based;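 further: broth tubes inoculated to about 5×10^5 CFU/ml, incubated at 35 °C for 16-24 h, growth judged by transmitted light versus an untreated inoculum reference tube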
Experimental: as §3, §4, §5, §6, §7, §8, §9, §10

[3] = tested on: E. coli ATCC 25922; experiment: MBC by plating tube contents on Mueller-Hinton medium; assay type: cell-based
Experimental: (§1) To evaluate the bactericidal action of the antibacterial composition based on light isotope ^64Zne the minimum bactericidal concentration (MBC) was determined by plating out 0.1 ml of the contents of each tube containing the antibacterial composition on Mueller-Hinton medium. The incubation was at 37° C. for 24 h.
(§2) The MBC of the test samples was determined as the lowest concentration at which there was no growth on Mueller-Hinton agar medium.

[4] = tested on: P. aeruginosa ATCC 27853; experiment: as above; assay type: cell-based
Experimental: as §1, §2

[5] = tested on: S. aureus ATCC 25923; experiment: as above; assay type: cell-based
Experimental: as §1, §2

[6] = tested on: P. aeruginosa ATCC 27853; experiment: MIC by serial dilutions in broth (visible growth)
Experimental: as §3, §4, §5, §6, §7, §8, §9, §10

[7] = Staphylococcus aureus, ATCC25923, Table 9, commercial antibacterial agents, read-out: MIC
[8] = Escherichia coli, ATCC25922, Table 9, commercial antibacterial agents, read-out: MIC
[9] = Escherichia coli, ATCC25922, Table 10, commercial antibacterial agents, read-out: MBC
[10] = Pseudomonas aeruginosa, ATCC27853, Table 10, commercial antibacterial agents, read-out: MBC
[11] = Staphylococcus aureus, ATCC25923, Table 10, commercial antibacterial agents, read-out: MBC
[12] = Pseudomonas aeruginosa, ATCC27853
[13] = Table 7, ^64Zne vs natural zinc
[14] = concentration of ^64Zne, Tables 1-5
[15] = Table 8, ^64Zne vs natural zinc

Question: Which MIC [1, 7] does the source give for `CO/N=C(\C(=O)N[C@@H]1C(=O)N2C(C(=O)O)=C(CSc3nc(=O)c(=O)[nH]n3C)CS[C@H]12)c1csc(N)n1` [ceftriaxone, reference compound] here?
Answer: Its MIC is 11.7 µg/mL (≈ 21.1 µM).

Question: And the MIC [2, 8]?
Answer: Its MIC is 2.93 µg/mL (≈ 5.28 µM).

Question: And the MBC [3, 9]?
Answer: Its MBC is 11.7 µg/mL (≈ 21.1 µM).

Question: What about the MBC [4, 10] of the same compound?
Answer: Its MBC is under 1500 µg/mL.

Question: And the MBC [5, 11]?
Answer: Its MBC is 375 µg/mL (≈ 676 µM).

Question: And the MIC [6, 12]?
Answer: The MIC was 750 µg/mL (≈ 1350 µM).

Question: What does the source list for `O=S(=O)([O-])[O-].[64Zn+2]` [^64Zne sulfate]?
Answer: visible growth [1]: − and +; MIC [1, 13]: 0.366 zinc/ml; visible growth ([1]; ^64Zne 0.00036 mcg/ml): +; visible growth ([1]; ^64Zne 0.00072 mcg/ml): +; visible growth ([1]; ^64Zne 0.0014 mcg/ml): +; visible growth ([1]; ^64Zne 0.0029 mcg/ml): +; visible growth ([1]; ^64Zne 0.011 mcg/ml): +; visible growth ([1]; ^64Zne 0.023 mcg/ml): +; visible growth ([1]; ^64Zne 0.046 mcg/ml): +; visible growth ([1]; ^64Zne 0.37 mcg/ml): −; visible growth ([1]; ^64Zne 1.46 mcg/ml): −; visible growth ([1]; ^64Zne 2.93 mcg/ml): −; visible growth ([1]; ^64Zne 5.86 mcg/ml): −; visible growth ([1]; ^64Zne 11.72 mcg/ml): −; visible growth ([1]; ^64Zne 23.44 mcg/ml): −; visible growth ([1]; ^64Zne 46.88 mcg/ml): −; visible growth ([1]; ^64Zne 93.75 mcg/ml): −; visible growth ([1]; ^64Zne 187.5 mcg/ml): −; visible growth ([1]; ^64Zne 375 mcg/ml): −; visible growth ([1]; ^64Zne 750 mcg/ml): −; MIC [1, 14]: 0.366 µg/mL; visible growth [2]: − and +; MIC [2, 13]: 0.0916 zinc/ml; visible growth ([2]; ^64Zne 0.00036 mcg/ml): +; visible growth ([2]; ^64Zne 0.00072 mcg/ml): +; visible growth ([2]; ^64Zne 0.0014 mcg/ml): +; visible growth ([2]; ^64Zne 0.0029 mcg/ml): +; visible growth ([2]; ^64Zne 0.011 mcg/ml): +; visible growth ([2]; ^64Zne 0.023 mcg/ml): +; visible growth ([2]; ^64Zne 0.046 mcg/ml): +; visible growth ([2]; ^64Zne 0.092 mcg/ml): −; visible growth ([2]; ^64Zne 0.37 mcg/ml): −; visible growth ([2]; ^64Zne 0.73 mcg/ml): −; visible growth ([2]; ^64Zne 1.46 mcg/ml): −; visible growth ([2]; ^64Zne 2.93 mcg/ml): −; visible growth ([2]; ^64Zne 5.86 mcg/ml): −; visible growth ([2]; ^64Zne 11.72 mcg/ml): −; visible growth ([2]; ^64Zne 23.44 mcg/ml): −; visible growth ([2]; ^64Zne 46.88 mcg/ml): −; visible growth ([2]; ^64Zne 93.75 mcg/ml): −; visible growth ([2]; ^64Zne 187.5 mcg/ml): −; visible growth ([2]; ^64Zne 375 mcg/ml): −; visible growth ([2]; ^64Zne 750 mcg/ml): −; visible growth ([2]; ^64Zne 1500 mcg/ml): −; MIC [2, 14]: 0.0916 µg/mL; MBC ([3]; Table 6): 1.46* mcg ^64Zne/ml; MBC [3, 15]: 1.4648 mcg zinc/ml; bactericidal activity (in words) [4]: satisfactory bactericidal activity; MBC ([4]; Table 6): 375 mcg ^64Zne/ml; MBC [4, 15]: 375 mcg zinc/ml; MBC ([5]; Table 6): 0.37* mcg ^64Zne/ml; MBC [5, 15]: 0.3662 mcg zinc/ml; MIC [6, 13]: 46.875 zinc/ml; MIC [6, 14]: 46.875 µg/mL

Question: What does the source list for `CCn1cc(C(=O)O)c(=O)c2cc(F)c(N3CCNCC3)cc21` [norfloxacin, reference compound]?
Answer: MIC [1, 7]: 11.7 µg/mL (≈ 36.7 µM); MIC [2, 8]: 23.4 µg/mL (≈ 73.4 µM); MBC [3, 9]: < 1500 µg/mL; MBC [4, 10]: < 1500 µg/mL; MBC [5, 11]: < 1500 µg/mL; MIC [6, 12]: 188 µg/mL (≈ 587 µM)

Question: `NC(CC(=O)O)C(=O)O` (stereo not shown) [^64Zne aspartate] was tested. Which MIC ([1]; Staphylococcus aureus, ATCC25923, concentration of ^64Zne, Tables 1-5, read-out: MIC) did it give?
Answer: Its MIC is 0.0057 µg/mL (≈ 0.0428 µM).

Question: What about the visible growth ([1]; ^64Zne 0.00018 mcg/ml) of the same compound?
Answer: The visible growth was “+”.

Question: What about the visible growth ([1]; ^64Zne 0.00036 mcg/ml) of the same compound?
Answer: Its visible growth is “+”.

Question: And the visible growth ([1]; ^64Zne 0.00072 mcg/ml)?
Answer: Its visible growth is “+”.

Question: What about the visible growth ([1]; ^64Zne 0.0014 mcg/ml) of the same compound?
Answer: Its visible growth is “+”.

Question: And the visible growth ([1]; ^64Zne 0.0029 mcg/ml)?
Answer: The visible growth was “+”.

Question: What about the visible growth ([1]; ^64Zne 0.0057 mcg/ml) of the same compound?
Answer: Its visible growth is “−”.

Question: And the visible growth ([1]; ^64Zne 0.011 mcg/ml)?
Answer: Its visible growth is “−”.

Question: And the visible growth ([1]; ^64Zne 0.023 mcg/ml)?
Answer: Its visible growth is “−”.

Question: And the visible growth ([1]; ^64Zne 0.046 mcg/ml)?
Answer: The visible growth was “−”.

Question: What about the visible growth ([1]; ^64Zne 0.092 mcg/ml) of the same compound?
Answer: The visible growth was “−”.

Question: What about the visible growth ([1]; ^64Zne 0.18 mcg/ml) of the same compound?
Answer: Its visible growth is “−”.

Question: And the visible growth ([1]; ^64Zne 0.37 mcg/ml)?
Answer: The visible growth was “−”.

Question: And the visible growth ([1]; ^64Zne 0.73 mcg/ml)?
Answer: The visible growth was “−”.

Question: And the visible growth ([1]; ^64Zne 1.46 mcg/ml)?
Answer: The visible growth was “−”.

Question: And the visible growth ([1]; ^64Zne 2.93 mcg/ml)?
Answer: Its visible growth is “−”.

Question: What about the visible growth ([1]; ^64Zne 5.86 mcg/ml) of the same compound?
Answer: The visible growth was “−”.

Question: What about the visible growth ([1]; ^64Zne 11.72 mcg/ml) of the same compound?
Answer: The visible growth was “−”.

Question: What about the visible growth ([1]; ^64Zne 23.44 mcg/ml) of the same compound?
Answer: Its visible growth is “−”.

Question: What about the visible growth ([1]; ^64Zne 46.88 mcg/ml) of the same compound?
Answer: Its visible growth is “−”.

Question: And the visible growth ([1]; ^64Zne 93.75 mcg/ml)?
Answer: Its visible growth is “−”.

Question: And the visible growth ([1]; ^64Zne 187.5 mcg/ml)?
Answer: The visible growth was “−”.

Question: What about the visible growth ([1]; ^64Zne 375 mcg/ml) of the same compound?
Answer: Its visible growth is “−”.

Question: What about the MIC ([2]; Escherichia coli, ATCC25922, concentration of ^64Zne, Tables 1-5, read-out: MIC) of the same compound?
Answer: The MIC was 0.0229 µg/mL (≈ 0.172 µM).

Question: And the visible growth ([2]; ^64Zne 0.00018 mcg/ml)?
Answer: Its visible growth is “+”.

Question: And the visible growth ([2]; ^64Zne 0.00036 mcg/ml)?
Answer: Its visible growth is “+”.

Question: And the visible growth ([2]; ^64Zne 0.00072 mcg/ml)?
Answer: Its visible growth is “+”.

Question: And the visible growth ([2]; ^64Zne 0.0014 mcg/ml)?
Answer: Its visible growth is “+”.

Question: What about the visible growth ([2]; ^64Zne 0.0029 mcg/ml) of the same compound?
Answer: The visible growth was “+”.

Question: And the visible growth ([2]; ^64Zne 0.0057 mcg/ml)?
Answer: Its visible growth is “+”.

Question: What about the visible growth ([2]; ^64Zne 0.011 mcg/ml) of the same compound?
Answer: The visible growth was “+”.

Question: What about the visible growth ([2]; ^64Zne 0.023 mcg/ml) of the same compound?
Answer: Its visible growth is “−”.

Question: What about the visible growth ([2]; ^64Zne 0.046 mcg/ml) of the same compound?
Answer: Its visible growth is “−”.

Question: And the visible growth ([2]; ^64Zne 0.092 mcg/ml)?
Answer: The visible growth was “−”.

Question: And the visible growth ([2]; ^64Zne 0.18 mcg/ml)?
Answer: Its visible growth is “−”.

Question: And the visible growth ([2]; ^64Zne 0.37 mcg/ml)?
Answer: The visible growth was “−”.

Question: What about the visible growth ([2]; ^64Zne 0.73 mcg/ml) of the same compound?
Answer: Its visible growth is “−”.

Question: And the visible growth ([2]; ^64Zne 1.46 mcg/ml)?
Answer: Its visible growth is “−”.

Question: What about the visible growth ([2]; ^64Zne 2.93 mcg/ml) of the same compound?
Answer: Its visible growth is “−”.

Question: And the visible growth ([2]; ^64Zne 5.86 mcg/ml)?
Answer: The visible growth was “−”.

Question: And the visible growth ([2]; ^64Zne 11.72 mcg/ml)?
Answer: The visible growth was “−”.

Question: And the visible growth ([2]; ^64Zne 23.44 mcg/ml)?
Answer: Its visible growth is “−”.

Question: What about the visible growth ([2]; ^64Zne 46.88 mcg/ml) of the same compound?
Answer: Its visible growth is “−”.

Question: And the visible growth ([2]; ^64Zne 93.75 mcg/ml)?
Answer: Its visible growth is “−”.

Question: What about the visible growth ([2]; ^64Zne 187.5 mcg/ml) of the same compound?
Answer: The visible growth was “−”.

Question: What about the visible growth ([2]; ^64Zne 375 mcg/ml) of the same compound?
Answer: Its visible growth is “−”.

Question: And the visible growth ([2]; ^64Zne 750 mcg/ml)?
Answer: Its visible growth is “−”.

Question: What about the “bacteriostatic activity (in words)” value [6] of the same compound?
Answer: Its value is “best results”.

Question: What about the MIC [6, 12] of the same compound?
Answer: Its MIC is 0.732 µg/mL (≈ 5.5 µM).
